Experimental data reported in the NIST ThermoML archive (doi:10.1021/acs.jced.8b00786).
Numbers after ± are expanded uncertainties.

Experiment: xn = mol fraction of the nth substance listed
Settings: Liquid; for viscosity: Capillary tube (Ostwald / Ubbelohde) method; for mass density: Vibrating tube method

CC(C)CCCC(C)CCCC(C)CCCCC(C)CCCC(C)CCCC(C)C (stereo not drawn) [2,6,10,15,19,23-hexamethyltetracosane] + O=C=O
Settings	mass density [kg/m3]	viscosity [mPa·s]
313.15 K, 2790 kPa, x2 = 0.199	796.7 ± 2.4	11.4 ± 0.27
313.15 K, 3900 kPa, x2 = 0.299	799.1 ± 2.4	9.2 ± 0.22
313.15 K, 5300 kPa, x2 = 0.519	804.5 ± 2.4	5.1 ± 0.14
313.15 K, 11290 kPa, x2 = 0.519	810.3 ± 2.5	5.59 ± 0.15
313.15 K, 12320 kPa, x2 = 0.299	805.8 ± 2.4	10.5 ± 0.25
313.15 K, 12560 kPa, x2 = 0.199	804.5 ± 2.4	13.39 ± 0.32
313.15 K, 21910 kPa, x2 = 0.519	819.7 ± 2.5	6.47 ± 0.18
313.15 K, 23100 kPa, x2 = 0.299	813.6 ± 2.5	12.46 ± 0.3
313.15 K, 23440 kPa, x2 = 0.199	812.5 ± 2.5	16.14 ± 0.39
313.15 K, 42900 kPa, x2 = 0.519	836.1 ± 2.6	8.58 ± 0.24
313.15 K, 44510 kPa, x2 = 0.299	828.1 ± 2.5	17.08 ± 0.42
313.15 K, 45240 kPa, x2 = 0.199	826.3 ± 2.5	22.88 ± 0.57
313.15 K, 57150 kPa, x2 = 0.519	846 ± 2.6	10.52 ± 0.3
313.15 K, 58570 kPa, x2 = 0.299	836.5 ± 2.6	21.56 ± 0.53
313.15 K, 60140 kPa, x2 = 0.199	834.5 ± 2.6	28.7 ± 0.7
313.15 K, 71140 kPa, x2 = 0.519	854.8 ± 2.6	12.5 ± 0.37
313.15 K, 73410 kPa, x2 = 0.299	844.9 ± 2.6	26.51 ± 0.65
313.15 K, 74430 kPa, x2 = 0.199	841.6 ± 2.6	35.87 ± 0.87
338.15 K, 3100 kPa, x2 = 0.199	780.2 ± 2.4	5.61 ± 0.16
338.15 K, 3320 kPa, x2 = 0.299	782.1 ± 2.4	4.69 ± 0.12
338.15 K, 6440 kPa, x2 = 0.519	787.1 ± 2.4	2.96 ± 0.07
338.15 K, 10860 kPa, x2 = 0.519	791.5 ± 2.4	3.18 ± 0.08
338.15 K, 11180 kPa, x2 = 0.299	788.3 ± 2.4	5.36 ± 0.13
338.15 K, 11690 kPa, x2 = 0.199	787.3 ± 2.4	6.41 ± 0.17
338.15 K, 21260 kPa, x2 = 0.519	801 ± 2.4	3.58 ± 0.09
338.15 K, 21990 kPa, x2 = 0.199	795.1 ± 2.4	7.61 ± 0.21
338.15 K, 21990 kPa, x2 = 0.299	796.2 ± 2.4	6.16 ± 0.16
338.15 K, 42140 kPa, x2 = 0.519	817.7 ± 2.5	4.78 ± 0.12
338.15 K, 42690 kPa, x2 = 0.299	810.4 ± 2.5	8.3 ± 0.21
338.15 K, 42870 kPa, x2 = 0.199	808.7 ± 2.5	10.48 ± 0.3
338.15 K, 56660 kPa, x2 = 0.519	827.7 ± 2.5	5.67 ± 0.15
338.15 K, 57330 kPa, x2 = 0.299	819.2 ± 2.5	10.09 ± 0.26
338.15 K, 57570 kPa, x2 = 0.199	817.1 ± 2.5	12.79 ± 0.37
338.15 K, 69970 kPa, x2 = 0.199	823.5 ± 2.6	15.43 ± 0.48
338.15 K, 70400 kPa, x2 = 0.519	836.4 ± 2.6	6.59 ± 0.17
338.15 K, 71030 kPa, x2 = 0.299	826.9 ± 2.6	12.17 ± 0.32
363.15 K, 2670 kPa, x2 = 0.199	763.2 ± 2.3	3.2 ± 0.08
363.15 K, 3820 kPa, x2 = 0.299	766.2 ± 2.3	2.86 ± 0.07
363.15 K, 7280 kPa, x2 = 0.519	769.5 ± 2.3	1.93 ± 0.05
363.15 K, 10740 kPa, x2 = 0.519	772.7 ± 2.3	2.06 ± 0.05
363.15 K, 10840 kPa, x2 = 0.299	771.7 ± 2.3	3.14 ± 0.08
363.15 K, 11090 kPa, x2 = 0.199	770.2 ± 2.3	3.71 ± 0.09
363.15 K, 21180 kPa, x2 = 0.299	779.2 ± 2.4	3.59 ± 0.09
363.15 K, 21340 kPa, x2 = 0.519	782.5 ± 2.4	2.31 ± 0.06
363.15 K, 21420 kPa, x2 = 0.199	778.2 ± 2.4	4.33 ± 0.11
363.15 K, 42180 kPa, x2 = 0.519	799.3 ± 2.5	3 ± 0.08
363.15 K, 42250 kPa, x2 = 0.299	793.2 ± 2.4	4.8 ± 0.12
363.15 K, 42490 kPa, x2 = 0.199	792.2 ± 2.4	5.75 ± 0.15
363.15 K, 56170 kPa, x2 = 0.519	809.2 ± 2.5	3.43 ± 0.09
363.15 K, 56390 kPa, x2 = 0.299	801.8 ± 2.5	5.69 ± 0.14
363.15 K, 56730 kPa, x2 = 0.199	800.5 ± 2.5	6.83 ± 0.18
363.15 K, 70120 kPa, x2 = 0.519	818 ± 2.5	4.08 ± 0.11
363.15 K, 70320 kPa, x2 = 0.299	809.6 ± 2.5	6.81 ± 0.17
363.15 K, 70780 kPa, x2 = 0.199	807.9 ± 2.5	8.08 ± 0.21
